Laboratory results from patent US20220125746A1, “METHOD OF PREVENTING OR TREATING TREATMENT-INDUCED GASTROINTESTINAL INJURY” (priority 2019, published 2022).
Counter-ions that a name gives are not always drawn.

How the values were obtained:
[1] = target: T1, BIM/MCL-1 (Homo sapiens, UniProt O43521); test: Immunoprecipitation of HA-BIM / V5-Mcl-1 from 293 lysates; assay type: binding; conditions: 25 uM, 15 min, anti-HA immunoprecipitation, western blot
T1 construct: expressed in transfected cells; host or cells: 293 cells; lysates used
Method: (FIG. 10A) Structure of the PUMA inhibitor lead compound (PUMAi). (FIG. 10B) Lysates of 293 cells transfected with individual plasmids for 24 hours were mixed in the indicated combinations. Lysates were incubated with vehicle or PUMA inhibitor (PUMAi, 25 μM) for 15 min before immunoprecipitation with an anti-HA antibody. The HA-bound proteins and input were analyzed by western blotting. (FIG. 10C) Lysates of 293 cells transfected with individual plasmids for 24 h were mixed in the indicated combinations. Lysates were incubated with vehicle or PUMA Inhibitor (PUMAi, 25 μM) for 15 min before immunoprecipitation with an anti-HA antibody. The HA-bound proteins and input were analyzed by western blotting. (FIG. 10D) Indicated colon cancer cell lines were treated with camptothecin (CPT, 500 nM) for 24 h. HCT 116 cells and PUMA KO HCT 116 cells have WT p53, others have no (KO) or mutant p53. Apoptosis was measured by nuclear fragmentation assay. Values are mean+SEM; n=3 independent experiments. (FIG. 10E) Cells were treated as in D for 24 h and analyzed by western blotting. Representative results are shown, and similar results were obtained in at least three independent experiments. […]

[2] = PUMAi distribution in intestinal mucosa and plasma (LC-MS/MS); assay type: in vivo, mouse; conditions: for PUMAi concentration in intestinal mucosa compared to -1.5 hours: 10 mg/kg i.p.
Method: Acetonitrile and water (all HPLC grade) were purchased from Fisher Scientific. Formic acid and trifluoroacetic acid was purchased from Sigma-Aldrich. Stock solutions of PUMAi and [D5]-PUMAi internal standard were prepared at 1 mg/mL in DMSO, diluted 10 times in acetonitrile, and then stored at −80° C. On the day of the assay, the solution was serially diluted (in 10-fold steps) in acetonitrile to obtain the lower calibration working solutions of 0.01 and 0.001 mg/mL. These calibration working solutions were diluted in mouse plasma (Lampire Biological Laboratories, Inc.) to produce the following analyte concentrations: 10, 30, 50, 100, 300, 500, 1000, 3000 ng/mL. For each calibration series, zero (containing 10 ng/mL of internal standard) and blank samples were also prepared from 50 μL of Lampire plasma. Quality control (QC) stock solutions were diluted in Lampire mouse plasma to produce the following QC samples: QC Low (QCL) 20 ng/mL; QC Mid (QCM) 200 ng/mL, and QC High (QCH) 2500 ng/mL.
To extract PUMAi, we added 10 μL of internal standard solution (1000 ng/mL [D5]-PUMAi in acetonitrile) to 50 μL of plasma sample in a micro centrifuge tube. […]
The mass spectrometer was operated in ESI positive mode using MRM detection. […] The mass transitions monitored were m/z 331>143 for PUMAi and 345>157 for the internal standard.
To assess recovery from plasma, we compared areas from control plasma spiked with 1000 ng/mL of PUMAi, prepared as described above, with the areas obtained with a neat solution of PUMAi in water. Intestinal mucosa was analyzed after dilution in control plasma to within the calibration range. […]
PUMAi {1-[4-(2-hydroxyethyl)-1-piperazinyl]-3-(2-naphthyloxy)-2-propanol dihydrochloride} was synthesized by ChemBridge, with a purity of 95% by HPLC-MS, and an internal isotopic standard PUMAih7 (D5, five internal hydrogens replaced by deuterium) was synthesized by Alsachim, with purity approaching 100% by HPLC-MS. […] Detailed methods on LC-MS/MS (liquid chromatography-tandem MS) quantitation of PUMAi are found in Supplementary Materials and Methods.

T1 sequence (O43521 whole entry, species assumed): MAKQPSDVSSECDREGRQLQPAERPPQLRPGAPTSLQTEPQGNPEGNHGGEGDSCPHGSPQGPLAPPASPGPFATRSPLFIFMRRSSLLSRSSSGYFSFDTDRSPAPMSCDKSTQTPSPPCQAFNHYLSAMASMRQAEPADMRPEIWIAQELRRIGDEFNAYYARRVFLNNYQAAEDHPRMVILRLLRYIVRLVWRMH

## OCCN1CCN(CC(O)COc2ccc3ccccc3c2)CC1 (stereo not shown) [PUMAi, 1-[4-(2-hydroxyethyl)-1-piperazinyl]-3-(2-naphthyloxy)-2-propanol dihydrochloride]
[1]
  inhibition of BIM/MCL-1 interaction: not of BIM/MCL-1
[2]; +1 hour of CPT-11 administration
  PUMAi concentration in intestinal mucosa compared to -1.5 hours: 67%
[2]; +6 hours of CPT-11 administration
  PUMAi concentration in intestinal mucosa compared to -1.5 hours: 30%
[2]; -1.5, +1, +6 hours, compared with intestinal mucosa
  PUMAi concentration in plasma over time: dropped more quickly in the plasma
